Experimental data from the NIST ThermoML archive (doi:10.1021/je9004992).
± gives the expanded uncertainty stated by the source.

Experiment: molar heat capacity at constant pressure
Details: Liquid, Small sample (50 mg) DSC

CCn1cc[n+](C)c1.F[B-](F)(F)F [1-ethyl-3-methylimidazolium tetrafluoroborate]
molar heat capacity at constant pressure (283.15 K, 100 kPa): 300.19 ± 4.7 J/K/mol
molar heat capacity at constant pressure (283.15 K, 2000 kPa): 300.22 ± 4.7 J/K/mol
molar heat capacity at constant pressure (283.15 K, 4000 kPa): 300.24 ± 4.7 J/K/mol
molar heat capacity at constant pressure (283.15 K, 6000 kPa): 300.27 ± 4.7 J/K/mol
molar heat capacity at constant pressure (283.15 K, 8000 kPa): 300.3 ± 4.7 J/K/mol
molar heat capacity at constant pressure (283.15 K, 10000 kPa): 300.33 ± 4.7 J/K/mol
molar heat capacity at constant pressure (283.15 K, 12000 kPa): 300.35 ± 4.7 J/K/mol
molar heat capacity at constant pressure (283.15 K, 14000 kPa): 300.38 ± 4.7 J/K/mol
molar heat capacity at constant pressure (283.15 K, 20000 kPa): 300.46 ± 4.7 J/K/mol
molar heat capacity at constant pressure (283.15 K, 30000 kPa): 300.6 ± 4.7 J/K/mol
molar heat capacity at constant pressure (283.15 K, 40000 kPa): 300.73 ± 4.7 J/K/mol
molar heat capacity at constant pressure (283.15 K, 50000 kPa): 300.87 ± 4.7 J/K/mol
molar heat capacity at constant pressure (283.15 K, 60000 kPa): 301 ± 4.7 J/K/mol
molar heat capacity at constant pressure (288.15 K, 100 kPa): 301.67 ± 4.7 J/K/mol
molar heat capacity at constant pressure (288.15 K, 2000 kPa): 301.7 ± 4.7 J/K/mol
molar heat capacity at constant pressure (288.15 K, 4000 kPa): 301.73 ± 4.7 J/K/mol
molar heat capacity at constant pressure (288.15 K, 6000 kPa): 301.76 ± 4.7 J/K/mol
molar heat capacity at constant pressure (288.15 K, 8000 kPa): 301.79 ± 4.7 J/K/mol
molar heat capacity at constant pressure (288.15 K, 10000 kPa): 301.82 ± 4.7 J/K/mol
molar heat capacity at constant pressure (288.15 K, 12000 kPa): 301.85 ± 4.7 J/K/mol
molar heat capacity at constant pressure (288.15 K, 14000 kPa): 301.87 ± 4.7 J/K/mol
molar heat capacity at constant pressure (288.15 K, 20000 kPa): 301.96 ± 4.7 J/K/mol
molar heat capacity at constant pressure (288.15 K, 30000 kPa): 302.1 ± 4.7 J/K/mol
molar heat capacity at constant pressure (288.15 K, 40000 kPa): 302.25 ± 4.7 J/K/mol
molar heat capacity at constant pressure (288.15 K, 50000 kPa): 302.39 ± 4.7 J/K/mol
molar heat capacity at constant pressure (288.15 K, 60000 kPa): 302.54 ± 4.7 J/K/mol
molar heat capacity at constant pressure (293.15 K, 100 kPa): 303.23 ± 4.7 J/K/mol
molar heat capacity at constant pressure (293.15 K, 2000 kPa): 303.26 ± 4.7 J/K/mol
molar heat capacity at constant pressure (293.15 K, 4000 kPa): 303.29 ± 4.7 J/K/mol
molar heat capacity at constant pressure (293.15 K, 6000 kPa): 303.32 ± 4.7 J/K/mol
molar heat capacity at constant pressure (293.15 K, 8000 kPa): 303.35 ± 4.7 J/K/mol
molar heat capacity at constant pressure (293.15 K, 10000 kPa): 303.38 ± 4.7 J/K/mol
molar heat capacity at constant pressure (293.15 K, 12000 kPa): 303.41 ± 4.7 J/K/mol
molar heat capacity at constant pressure (293.15 K, 14000 kPa): 303.44 ± 4.7 J/K/mol
molar heat capacity at constant pressure (293.15 K, 20000 kPa): 303.53 ± 4.7 J/K/mol
molar heat capacity at constant pressure (293.15 K, 30000 kPa): 303.68 ± 4.7 J/K/mol
molar heat capacity at constant pressure (293.15 K, 40000 kPa): 303.83 ± 4.7 J/K/mol
molar heat capacity at constant pressure (293.15 K, 50000 kPa): 303.98 ± 4.7 J/K/mol
molar heat capacity at constant pressure (293.15 K, 60000 kPa): 304.13 ± 4.7 J/K/mol
molar heat capacity at constant pressure (298.15 K, 100 kPa): 304.87 ± 4.7 J/K/mol
molar heat capacity at constant pressure (298.15 K, 2000 kPa): 304.9 ± 4.7 J/K/mol
molar heat capacity at constant pressure (298.15 K, 4000 kPa): 304.93 ± 4.7 J/K/mol
molar heat capacity at constant pressure (298.15 K, 6000 kPa): 304.96 ± 4.7 J/K/mol
molar heat capacity at constant pressure (298.15 K, 8000 kPa): 304.99 ± 4.7 J/K/mol
molar heat capacity at constant pressure (298.15 K, 10000 kPa): 305.02 ± 4.7 J/K/mol
molar heat capacity at constant pressure (298.15 K, 12000 kPa): 305.05 ± 4.7 J/K/mol
molar heat capacity at constant pressure (298.15 K, 14000 kPa): 305.08 ± 4.7 J/K/mol
molar heat capacity at constant pressure (298.15 K, 20000 kPa): 305.18 ± 4.7 J/K/mol
molar heat capacity at constant pressure (298.15 K, 30000 kPa): 305.33 ± 4.7 J/K/mol
molar heat capacity at constant pressure (298.15 K, 40000 kPa): 305.49 ± 4.7 J/K/mol
molar heat capacity at constant pressure (298.15 K, 50000 kPa): 305.64 ± 4.7 J/K/mol
molar heat capacity at constant pressure (298.15 K, 60000 kPa): 305.8 ± 4.7 J/K/mol
molar heat capacity at constant pressure (303.15 K, 100 kPa): 306.58 ± 4.8 J/K/mol
molar heat capacity at constant pressure (303.15 K, 2000 kPa): 306.61 ± 4.8 J/K/mol
molar heat capacity at constant pressure (303.15 K, 4000 kPa): 306.64 ± 4.8 J/K/mol
molar heat capacity at constant pressure (303.15 K, 6000 kPa): 306.67 ± 4.8 J/K/mol
molar heat capacity at constant pressure (303.15 K, 8000 kPa): 306.7 ± 4.8 J/K/mol
molar heat capacity at constant pressure (303.15 K, 10000 kPa): 306.73 ± 4.8 J/K/mol
molar heat capacity at constant pressure (303.15 K, 12000 kPa): 306.77 ± 4.8 J/K/mol
molar heat capacity at constant pressure (303.15 K, 14000 kPa): 306.8 ± 4.8 J/K/mol
molar heat capacity at constant pressure (303.15 K, 20000 kPa): 306.89 ± 4.8 J/K/mol
molar heat capacity at constant pressure (303.15 K, 30000 kPa): 307.05 ± 4.8 J/K/mol
molar heat capacity at constant pressure (303.15 K, 40000 kPa): 307.21 ± 4.8 J/K/mol
molar heat capacity at constant pressure (303.15 K, 50000 kPa): 307.37 ± 4.8 J/K/mol
molar heat capacity at constant pressure (303.15 K, 60000 kPa): 307.52 ± 4.8 J/K/mol
molar heat capacity at constant pressure (308.15 K, 100 kPa): 308.36 ± 4.8 J/K/mol
molar heat capacity at constant pressure (308.15 K, 2000 kPa): 308.4 ± 4.8 J/K/mol
molar heat capacity at constant pressure (308.15 K, 4000 kPa): 308.43 ± 4.8 J/K/mol
molar heat capacity at constant pressure (308.15 K, 6000 kPa): 308.46 ± 4.8 J/K/mol
molar heat capacity at constant pressure (308.15 K, 8000 kPa): 308.49 ± 4.8 J/K/mol
molar heat capacity at constant pressure (308.15 K, 10000 kPa): 308.52 ± 4.8 J/K/mol
molar heat capacity at constant pressure (308.15 K, 12000 kPa): 308.55 ± 4.8 J/K/mol
molar heat capacity at constant pressure (308.15 K, 14000 kPa): 308.59 ± 4.8 J/K/mol
molar heat capacity at constant pressure (308.15 K, 20000 kPa): 308.68 ± 4.8 J/K/mol
molar heat capacity at constant pressure (308.15 K, 30000 kPa): 308.84 ± 4.8 J/K/mol
molar heat capacity at constant pressure (308.15 K, 40000 kPa): 309 ± 4.8 J/K/mol
molar heat capacity at constant pressure (308.15 K, 50000 kPa): 309.16 ± 4.8 J/K/mol
molar heat capacity at constant pressure (308.15 K, 60000 kPa): 309.32 ± 4.8 J/K/mol
molar heat capacity at constant pressure (313.15 K, 100 kPa): 310.23 ± 4.8 J/K/mol
molar heat capacity at constant pressure (313.15 K, 2000 kPa): 310.26 ± 4.8 J/K/mol
molar heat capacity at constant pressure (313.15 K, 4000 kPa): 310.29 ± 4.8 J/K/mol
molar heat capacity at constant pressure (313.15 K, 6000 kPa): 310.32 ± 4.8 J/K/mol
molar heat capacity at constant pressure (313.15 K, 8000 kPa): 310.35 ± 4.8 J/K/mol
molar heat capacity at constant pressure (313.15 K, 10000 kPa): 310.38 ± 4.8 J/K/mol
molar heat capacity at constant pressure (313.15 K, 12000 kPa): 310.42 ± 4.8 J/K/mol
molar heat capacity at constant pressure (313.15 K, 14000 kPa): 310.45 ± 4.8 J/K/mol
molar heat capacity at constant pressure (313.15 K, 20000 kPa): 310.54 ± 4.8 J/K/mol
molar heat capacity at constant pressure (313.15 K, 30000 kPa): 310.7 ± 4.8 J/K/mol
molar heat capacity at constant pressure (313.15 K, 40000 kPa): 310.86 ± 4.8 J/K/mol
molar heat capacity at constant pressure (313.15 K, 50000 kPa): 311.02 ± 4.8 J/K/mol
molar heat capacity at constant pressure (313.15 K, 60000 kPa): 311.17 ± 4.8 J/K/mol
molar heat capacity at constant pressure (318.15 K, 100 kPa): 312.17 ± 4.8 J/K/mol
molar heat capacity at constant pressure (318.15 K, 2000 kPa): 312.2 ± 4.8 J/K/mol
molar heat capacity at constant pressure (318.15 K, 4000 kPa): 312.23 ± 4.8 J/K/mol
molar heat capacity at constant pressure (318.15 K, 6000 kPa): 312.26 ± 4.8 J/K/mol
molar heat capacity at constant pressure (318.15 K, 8000 kPa): 312.29 ± 4.8 J/K/mol
molar heat capacity at constant pressure (318.15 K, 10000 kPa): 312.32 ± 4.8 J/K/mol
molar heat capacity at constant pressure (318.15 K, 12000 kPa): 312.35 ± 4.8 J/K/mol
molar heat capacity at constant pressure (318.15 K, 14000 kPa): 312.38 ± 4.8 J/K/mol
molar heat capacity at constant pressure (318.15 K, 20000 kPa): 312.47 ± 4.8 J/K/mol
molar heat capacity at constant pressure (318.15 K, 30000 kPa): 312.63 ± 4.8 J/K/mol
molar heat capacity at constant pressure (318.15 K, 40000 kPa): 312.79 ± 4.8 J/K/mol
molar heat capacity at constant pressure (318.15 K, 50000 kPa): 312.94 ± 4.8 J/K/mol
molar heat capacity at constant pressure (318.15 K, 60000 kPa): 313.1 ± 4.8 J/K/mol
molar heat capacity at constant pressure (323.15 K, 100 kPa): 314.18 ± 4.9 J/K/mol
molar heat capacity at constant pressure (323.15 K, 2000 kPa): 314.21 ± 4.9 J/K/mol
molar heat capacity at constant pressure (323.15 K, 4000 kPa): 314.24 ± 4.9 J/K/mol
molar heat capacity at constant pressure (323.15 K, 6000 kPa): 314.27 ± 4.9 J/K/mol
molar heat capacity at constant pressure (323.15 K, 8000 kPa): 314.3 ± 4.9 J/K/mol
molar heat capacity at constant pressure (323.15 K, 10000 kPa): 314.33 ± 4.9 J/K/mol
molar heat capacity at constant pressure (323.15 K, 12000 kPa): 314.36 ± 4.9 J/K/mol
molar heat capacity at constant pressure (323.15 K, 14000 kPa): 314.39 ± 4.9 J/K/mol
molar heat capacity at constant pressure (323.15 K, 20000 kPa): 314.48 ± 4.9 J/K/mol
molar heat capacity at constant pressure (323.15 K, 30000 kPa): 314.63 ± 4.9 J/K/mol
molar heat capacity at constant pressure (323.15 K, 40000 kPa): 314.78 ± 4.9 J/K/mol
molar heat capacity at constant pressure (323.15 K, 50000 kPa): 314.93 ± 4.9 J/K/mol
molar heat capacity at constant pressure (323.15 K, 60000 kPa): 315.08 ± 4.9 J/K/mol
